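Assay format: 96-well plates, 48-hour exposure. Abbreviation: GI50, concentration required for 50% inhibition of growth.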 Activity calls are given as the source filed them. No stated cut-off is given here; in the data, active = GI50 up to about 1.1 µM and inactive = higher.
Tests used:
Test in all cases: NCI tumour cell line growth inhibition, 48 h
786-0 = system: 786-0
A549 = system: A549
CAKI-1 = system: CAKI-1
CCRF-CEM = system: CCRF-CEM
COLO 205 = system: COLO 205
DU-145 = system: DU-145
EKVX = system: EKVX
HCC 2998 = system: HCC 2998
HCT-15 = system: HCT-15
HL-60 = system: HL-60
HOP-62 = system: HOP-62
HT-29 = system: HT-29
IGROV-1 = system: IGROV-1
K562 = system: K562
KM12 = system: KM12
LOX IMVI = system: LOX IMVI
M14 = system: M14
MCF7 = system: MCF7
MDA-MB-231 = system: MDA-MB-231
MDA-N = system: MDA-N
MOLT-4 = system: MOLT-4
Malme-3M = system: Malme-3M
NCI-H23 = system: NCI-H23
OVCAR-8 = system: OVCAR-8
PC-3 = system: PC-3
RPMI-8226 = system: RPMI-8226
RXF 393 = system: RXF 393
SF-268 = system: SF-268
SF-295 = system: SF-295
SK-MEL-28 = system: SK-MEL-28
SK-MEL-5 = system: SK-MEL-5
SK-OV-3 = system: SK-OV-3
SN12C = system: SN12C
SNB-75 = system: SNB-75
SR = system: SR
SW-620 = system: SW-620
T47D = system: T47D
TK-10 = system: TK-10
UACC-257 = system: UACC-257
UACC-62 = system: UACC-62
A498 = system: A498
ACHN = system: ACHN
HCT-116 = system: HCT-116
HOP-92 = system: HOP-92
Hs-578T = system: Hs-578T
MDA-MB-435 = system: MDA-MB-435
NCI-H226 = system: NCI-H226
NCI-H460 = system: NCI-H460
NCI-H522 = system: NCI-H522
NCI/ADR-RES = system: NCI/ADR-RES
OVCAR-3 = system: OVCAR-3
OVCAR-4 = system: OVCAR-4
OVCAR-5 = system: OVCAR-5
SF-539 = system: SF-539
SK-MEL-2 = system: SK-MEL-2
SNB-19 = system: SNB-19
U-251 = system: U-251
UO-31 = system: UO-31

Measured: GI50

C/C(=C\CCC1=CC(=O)OC1)CCC1C2C(=O)CC(C)[C@@]3(C)CC[C@]1(C)[C@@]23C (some centres not stated)
> 10 µM: HCT-15
inactive: 786-0 > 10 µM | A549 > 10 µM | CAKI-1 > 10 µM | CCRF-CEM > 10 µM | COLO 205 > 10 µM | DU-145 > 10 µM | EKVX > 10 µM | HCC 2998 > 10 µM | HL-60 5.85 µM | HOP-62 > 10 µM | HT-29 > 10 µM | IGROV-1 > 10 µM | K562 9.44 µM | KM12 > 10 µM | LOX IMVI > 10 µM | M14 > 10 µM | MCF7 > 10 µM | MDA-MB-231 > 10 µM | MDA-N > 10 µM | MOLT-4 > 10 µM | Malme-3M > 10 µM | NCI-H23 > 10 µM | OVCAR-8 > 10 µM | PC-3 > 10 µM | RPMI-8226 > 10 µM | RXF 393 > 10 µM | SF-268 > 10 µM | SF-295 > 10 µM | SK-MEL-28 > 10 µM | SK-MEL-5 > 10 µM | SK-OV-3 > 10 µM | SN12C > 10 µM | SNB-75 > 10 µM | SR 6.62 µM | SW-620 > 10 µM | T47D > 10 µM | TK-10 > 10 µM | UACC-257 > 10 µM | UACC-62 > 10 µM

CCN(CC)CC1CCCCN1CC(=O)N1c2ccccc2C(=O)Nc2cccnc21 (configuration not stated) [OTENZEPAD]
inactive: 786-0 35.4 µM | A498 > 100 µM | A549 17 µM | ACHN 56 µM | CAKI-1 > 100 µM | CCRF-CEM 19 µM | COLO 205 23.2 µM | DU-145 > 100 µM | EKVX > 100 µM | HCC 2998 > 100 µM | HCT-116 12.2 µM | HL-60 17.4 µM | HOP-62 34.7 µM | HOP-92 > 100 µM | HT-29 21.8 µM | Hs-578T 93.1 µM | IGROV-1 > 100 µM | KM12 66.7 µM | LOX IMVI 18.3 µM | M14 68.9 µM | MCF7 27.9 µM | MDA-MB-231 32.1 µM | MDA-MB-435 63 µM | MDA-N 66.2 µM | MOLT-4 21 µM | Malme-3M > 100 µM | NCI-H226 41 µM | NCI-H23 52 µM | NCI-H460 59.3 µM | NCI-H522 > 100 µM | NCI/ADR-RES 20.8 µM | OVCAR-3 > 100 µM | OVCAR-4 38.9 µM | OVCAR-5 83.2 µM | OVCAR-8 45.4 µM | PC-3 36.8 µM | RPMI-8226 35.6 µM | RXF 393 > 100 µM | SF-268 59.2 µM | SF-295 > 100 µM | SF-539 40.6 µM | SK-MEL-28 > 100 µM | SK-MEL-2 > 100 µM | SK-MEL-5 > 100 µM | SK-OV-3 > 100 µM | SN12C 50.9 µM | SNB-19 > 100 µM | SNB-75 99.1 µM | SR 28.1 µM | SW-620 36.7 µM | T47D > 100 µM | TK-10 > 100 µM | U-251 60.5 µM | UACC-257 38.1 µM | UACC-62 91.4 µM | UO-31 1.97 µM
38.6 µM: HCT-15

O=c1c2ccccc2nc2n1CCc1c-2[nH]c2ccccc12 [RUTAECARPINE]
> 10 µM: HCT-15
inactive: CAKI-1 9.2 µM | COLO 205 21.8 µM | DU-145 17.4 µM | EKVX 20.7 µM | HCT-116 17.5 µM | HL-60 24.2 µM | HOP-92 15.6 µM | IGROV-1 19.8 µM | K562 25.2 µM | KM12 > 10 µM | M14 17.1 µM | MDA-N 15.2 µM | MOLT-4 19.9 µM | Malme-3M 28.8 µM | NCI-H23 17.8 µM | NCI/ADR-RES 19.5 µM | OVCAR-5 17.4 µM | OVCAR-8 26.2 µM | PC-3 22.2 µM | RPMI-8226 15 µM | RXF 393 18.8 µM | SF-268 26.8 µM | SF-295 14.1 µM | SK-MEL-28 25.2 µM | SK-MEL-5 14.7 µM | SK-OV-3 19.4 µM | SNB-19 15.8 µM | SNB-75 18.9 µM | SR 24.4 µM | SW-620 18.6 µM | T47D 15.7 µM | TK-10 29.6 µM | U-251 15.3 µM | UO-31 14.9 µM

Source: ChEMBL document CHEMBL1201862, “PubChem BioAssay data set” (2004)
